Measurements reported in patent US20250082660A1 (priority 2023, published 2025).
Structures can show the parent of a compound that is named as a salt. Where two headings read alike, the source gives them in different places.

Experiments:
[1] = target: T1, cytosolic phospholipase A2 (cPLA2, PLA2G4) (Homo sapiens, UniProt P47712); assay: cPLA2 phosphorylation
T1 sequence (P47712 1-749): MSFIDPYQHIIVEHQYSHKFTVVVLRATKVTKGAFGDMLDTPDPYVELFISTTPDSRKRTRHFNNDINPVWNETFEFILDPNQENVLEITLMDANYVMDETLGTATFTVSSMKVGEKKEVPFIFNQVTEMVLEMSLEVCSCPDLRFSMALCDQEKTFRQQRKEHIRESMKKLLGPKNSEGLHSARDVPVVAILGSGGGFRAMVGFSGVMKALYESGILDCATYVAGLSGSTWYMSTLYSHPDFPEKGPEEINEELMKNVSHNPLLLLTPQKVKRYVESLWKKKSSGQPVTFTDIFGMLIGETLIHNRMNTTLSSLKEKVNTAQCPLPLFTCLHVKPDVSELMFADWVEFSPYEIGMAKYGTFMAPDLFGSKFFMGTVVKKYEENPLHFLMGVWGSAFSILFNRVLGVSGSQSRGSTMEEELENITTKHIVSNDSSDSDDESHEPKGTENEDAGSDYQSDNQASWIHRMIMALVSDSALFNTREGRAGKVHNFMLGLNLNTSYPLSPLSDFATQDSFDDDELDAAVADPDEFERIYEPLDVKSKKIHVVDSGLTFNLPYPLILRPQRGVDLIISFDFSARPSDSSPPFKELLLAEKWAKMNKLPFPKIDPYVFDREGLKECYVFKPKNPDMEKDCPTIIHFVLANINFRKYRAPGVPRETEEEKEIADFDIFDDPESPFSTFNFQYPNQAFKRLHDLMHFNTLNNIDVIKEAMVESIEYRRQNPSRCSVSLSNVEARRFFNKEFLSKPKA

CYP1A1 enzyme = target: T2, CYP1A1 enzyme (Homo sapiens, UniProt P04798); settings: cited from earlier work
T2 sequence (P04798 1-512): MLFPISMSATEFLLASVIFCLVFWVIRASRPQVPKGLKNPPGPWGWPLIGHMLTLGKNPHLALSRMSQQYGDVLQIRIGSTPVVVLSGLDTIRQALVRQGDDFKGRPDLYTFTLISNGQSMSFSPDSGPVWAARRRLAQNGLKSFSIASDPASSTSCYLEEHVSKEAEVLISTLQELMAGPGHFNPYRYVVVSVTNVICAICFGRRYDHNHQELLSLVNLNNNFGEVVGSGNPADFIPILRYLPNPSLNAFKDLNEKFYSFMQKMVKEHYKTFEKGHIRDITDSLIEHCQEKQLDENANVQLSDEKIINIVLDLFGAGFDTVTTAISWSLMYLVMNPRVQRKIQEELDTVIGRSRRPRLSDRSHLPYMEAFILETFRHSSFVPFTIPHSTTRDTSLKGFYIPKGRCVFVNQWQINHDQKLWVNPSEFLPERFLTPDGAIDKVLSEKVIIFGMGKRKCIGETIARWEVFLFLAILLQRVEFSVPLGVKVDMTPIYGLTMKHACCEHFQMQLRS

[2] = cited from earlier work
[3] = test system: loperamide-induced acute model mice; format: in vivo, C57BL/6J Mus musculus; settings: oral loperamide 2.5 mg/kg, 0-9 h after treatment, mean±SEM, n=6
Procedure: Six-week-old male (18-22 g) C57BL/6J Mus musculus were obtained from Laboratory Animal Services Center, The Chinese University of Hong Kong. All mice were housed in an environmentally controlled room (22±1° C.; ˜ 50% relative humidity) with a 12-h light-dark cycle, and fed a normal rodent diet and water. Animal care was approved by the Committee on the Use of Human and Animal Subjects in Teaching and Research, Hong Kong Baptist University (REC/19-20/0300).
Mice were randomly assigned to the following four groups (n=6 per group): control group, loperamide group, loperamide+CDD-2101 group, and loperamide+Senna group. The mice in the control group were only orally treated with Milli-Q water. The other groups were orally administrated with loperamide (2.5 mg/kg body weight). CDD-2101 and Senna were administered based on the clinical dosages of MZRW and Senna, respectively, used in constipation patients. The CDD-2101 group was orally administered with 30 g/d/kg body weight. The Senna group was given 8 tablets/day.
All fecal pellets produced during the first 5 min were discarded. Then fecal samples were collected, and the frequency was recorded for the next 9 h. Fecal pellets were put into tubes set in dry ice. After collection, they were stored at −80° C. for further use. Gastrointestinal motility was calculated from pellet frequency. The secretion was determined by pellet water content.

CYP1A2 = target: T3, CYP1A2 (Homo sapiens, UniProt P05177); settings: cited from earlier work
T3 sequence (P05177 1-516): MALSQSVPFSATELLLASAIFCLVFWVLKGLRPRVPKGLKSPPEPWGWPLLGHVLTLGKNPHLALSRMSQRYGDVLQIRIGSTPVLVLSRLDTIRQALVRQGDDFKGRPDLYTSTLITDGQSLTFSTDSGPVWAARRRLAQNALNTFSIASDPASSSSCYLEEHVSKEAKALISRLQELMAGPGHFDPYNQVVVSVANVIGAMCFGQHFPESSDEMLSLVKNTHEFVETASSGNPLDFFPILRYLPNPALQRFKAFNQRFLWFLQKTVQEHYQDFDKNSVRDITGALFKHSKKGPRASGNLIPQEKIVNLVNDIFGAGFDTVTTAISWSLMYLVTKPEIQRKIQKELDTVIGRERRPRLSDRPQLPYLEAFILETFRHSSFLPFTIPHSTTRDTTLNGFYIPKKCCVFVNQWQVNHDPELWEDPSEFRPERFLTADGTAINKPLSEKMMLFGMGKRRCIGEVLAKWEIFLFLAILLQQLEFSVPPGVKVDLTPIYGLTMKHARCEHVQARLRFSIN

ALOX5 = target: T4, ALOX5 (Homo sapiens, UniProt P09917); settings: in vitro and in vivo; cited from earlier work
T4 sequence (P09917 1-674): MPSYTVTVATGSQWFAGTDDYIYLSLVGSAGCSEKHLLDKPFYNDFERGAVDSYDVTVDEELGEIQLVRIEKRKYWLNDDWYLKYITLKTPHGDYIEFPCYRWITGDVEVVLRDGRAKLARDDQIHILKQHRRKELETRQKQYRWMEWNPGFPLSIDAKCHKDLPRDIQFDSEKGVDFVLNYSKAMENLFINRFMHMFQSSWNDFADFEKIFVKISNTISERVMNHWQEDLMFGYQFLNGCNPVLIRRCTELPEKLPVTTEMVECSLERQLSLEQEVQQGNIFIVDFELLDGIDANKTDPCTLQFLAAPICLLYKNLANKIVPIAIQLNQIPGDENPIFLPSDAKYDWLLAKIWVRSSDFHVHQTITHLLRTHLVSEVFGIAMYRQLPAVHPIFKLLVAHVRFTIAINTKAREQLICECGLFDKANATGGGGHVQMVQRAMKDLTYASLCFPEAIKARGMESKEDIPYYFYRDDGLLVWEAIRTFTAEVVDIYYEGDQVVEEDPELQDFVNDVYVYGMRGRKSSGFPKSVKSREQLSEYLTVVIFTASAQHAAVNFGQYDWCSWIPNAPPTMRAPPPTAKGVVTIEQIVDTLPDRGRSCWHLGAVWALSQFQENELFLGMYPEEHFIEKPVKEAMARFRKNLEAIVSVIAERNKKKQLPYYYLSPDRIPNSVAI

[4] = Fecal phytochemistry: metabolism of Senna ingredients; format: in vivo, C57BL/6J Mus musculus; settings: Senna group, feces
Description: First, the phytochemical compounds in CDD-2101 and feces were characterized using the UHPLC/Q-TOF-MS with the same parameters as for the metabolomics analysis described in section 1.4. Potential active compounds were selected because of their frequent use in pharmacology study, and their high abundance in CDD-2101 and feces. Those compounds were confirmed by commercial standards. Second, the biological targets of these compounds were gathered by searching in BindingDB (https://www.bindingdb.org/) and STITCH (http://stitch.embl.de/). The candidate targets of constipation were gathered by searching on the keyword “constipation” in GeneCards (https://www.genecards.org/). Third, these targets were manually checked in full texts of relevant references. The confirmed proteins were considered to be the predicted targets of CDD-2101 against constipation.

Compound: C[C@]12C[C@@H](O)[C@@H]3C[C@@]1(O[C@@H]1O[C@H](CO)[C@@H](O)[C@H](O)[C@H]1O)[C@@]3(COC(=O)c1ccccc1)C(=O)O2 [albiflorin]
- cPLA2 (PLA2G4) phosphorylation [1]: stimulated

Compound: COc1ccc([C@@H]2CC(=O)c3c(O)cc(O)cc3O2)cc1O [hesperetin]
- binding to CYP1A1 enzyme (CYP1A1 enzyme): bind

Compound: COc1ccc([C@@H]2CC(=O)c3c(O)cc(O[C@@H]4O[C@H](CO[C@@H]5O[C@@H](C)[C@H](O)[C@@H](O)[C@H]5O)[C@@H](O)[C@H](O)[C@H]4O)cc3O2)cc1O [hesperidin]
- metabolite formed in the colon [2]: hesperetin

Compound: CN(C)C(=O)C(CCN1CCC(O)(c2ccc(Cl)cc2)CC1)(c1ccccc1)c1ccccc1 [loperamide, Loperamide hydrochloride]
- cumulative number of fecal pellet [3]: 21.5±2.7 pellets/9 h
- fecal pellet water content [3]: 48.2±2.1%

Compound: C=CCc1ccc(O)c(-c2cc(CC=C)ccc2O)c1 [magnolol]
- binding to CYP1A1 enzyme (CYP1A1 enzyme; reported): bind
- inhibition of CYP1A2 enzyme (CYP1A2): strongly inhibit
- inhibition of ALOX5 enzyme (ALOX5): strongly inhibit
- cPLA2 (PLA2G4) phosphorylation [1]: stimulated

Compound: O=C1C[C@@H](c2ccc(O)cc2)Oc2cc(O)cc(O)c21 [naringenin]
- binding to CYP1A1 enzyme (CYP1A1 enzyme): bind

Compound: O=C(O)c1cc(O)c2c(c1)[C@H]([C@H]1c3cc(C(=O)O)cc(O)c3C(=O)c3c(O[C@@H]4O[C@H](CO)[C@@H](O)[C@H](O)[C@H]4O)cccc31)c1cccc(O[C@@H]3O[C@H](CO)[C@@H](O)[C@H](O)[C@H]3O)c1C2=O [sennoside A]
- metabolite formed [4]: rhein

Compound: O=C(O)c1cc(O)c2c(c1)[C@@H]([C@H]1c3cc(C(=O)O)cc(O)c3C(=O)c3c(O[C@@H]4O[C@H](CO)[C@@H](O)[C@H](O)[C@H]4O)cccc31)c1cccc(O[C@@H]3O[C@H](CO)[C@@H](O)[C@H](O)[C@H]3O)c1C2=O [sennoside B]
- metabolite formed [4]: rhein
